This is an account of results in patent US11691971B2, “Naphthyridinone compounds as JAK2 V617F inhibitors” (Incyte Corporation, priority 2020, dated 2023).

Counter-ions that a name gives are not always drawn.

The target of test [1] is pseudo-kinase domain (JH2) of human V617F mutant JAK2 (Homo sapiens (Human), UniProt O60674, F794H/V617F/W659A/W777A). Kind of test: JAK2 LanthaScreen JH2-V617F Binding Assay. As to conditions: JAK2 JH2-V617F 0.26 nM, 50 nM tracer, 1 hour at 25° C.; read-out: JH2BINDING_V617F IC50. Here is the method:
The assay was conducted in black 384-well polystyrene plates in a final reaction volume of 20 μL. […] Non-specific binding was accessed in the presence of 2 mM ATP. After incubation for 1 hour at 25° C., LanthaScreen signals were read on a PHERAstar FS plate reader (BMG LABTECH). Data was analyzed with IDBS XLfit and GraphPad Prism 5.0 software using a four parameter dose response curve to determine IC50 for each compound.

Test [2] deals with pseudo-kinase domain (JH2) of human Wild Type JAK2 (Homo sapiens (Human), UniProt O60674, F794H/W659A/W777A). Nature of the test: JAK2 LanthaScreen JH2-WT Binding Assay. To be noted: JAK2 JH2-WT 0.145 nM, 50 nM tracer, 1 hour at 25° C.; read-out: JH2BIND_WT IC50. Here is the method:
Example B. JAK2 LanthaScreen JH2-WT Binding Assay
(§1) The assay was conducted in black 384-well polystyrene plates in a final reaction volume of 20 μL. JAK2 JH2-WT (0.145 nM) was incubated with compounds (100 nL serially diluted in DMSO) in the presence of 50 nM Fluorescent JAK2-JH2 Tracer (MedChem Express Catalog #HY-102055) and 0.25 nM Streptavidin-Tb cryptate (Cisbio Part #610SATLB) in assay buffer (50 mM Tris, pH=7.5, 10 mM MgCl2, 0.01% Brij-35, 0.1% BSA, 1 mM EGTA, 5% Glycerol and 5 mM DTT). Non-specific binding was accessed in the presence of 2 mM ATP. After incubation for 1 hour at 25° C., LanthaScreen signals were read on a PHERAstar FS plate reader (BMG LABTECH). Data was analyzed with IDBS XLfit and GraphPad Prism 5.0 software using a four parameter dose response curve to determine IC50 for each compound.
(In general: Time-resolved FRET reads energy transfer from a long-lived donor to a nearby acceptor.)

Test [3] has as its target catalytic domain (JH1, amino acids 808-1132) of human JAK2 (Homo sapiens (Human), UniProt O60674). Nature of the test: JAK2 HTRF Enzyme Activity Assay. As to conditions: ATP 30 μM, 60 minutes at 25° C.; read-out: ENZ 30UMATP IC50. It counts as biochemical. Here is the method: Example D. JAK2 HTRF Enzyme Activity Assay
JAK2 enzyme activity assays utilize catalytic domain (JH1, amino acids 808-1132) of human JAK2 expressed as N-terminal His-tagged protein in a baculovirus expression system (BPS Bioscience, Catalog #40450). The assays was conducted in black 384-well polystyrene plates in a final reaction volume of 20 μL. JAK2 (0.015 nM) was incubated with compounds (100 nL serially diluted in DMSO) in the presence of ATP (30 μM or 1 mM) and 500 nM Biotin-labeled […] (SEQ ID NO.: 1) peptide (BioSource International, custom synthesis) in assay buffer (50 mM Tris, pH=7.5, 10 mM MgCl2, 0.01% Brij-35, 0.1% BSA, 1 mM EGTA, 5% Glycerol and 5 mM DTT) for 60 minutes at 25° C. The reactions were stopped by the addition of 10 μL of detection buffer (50 mM Tris, pH 7.8, 0.5 mg/mL BSA, 150 mM NaCl), supplemented with EDTA, LANCE Eu-W1024 anti-phosphotyrosine (PY20), (PerkinElmer, Catalog #AD0067) and Streptavidin SureLight APC (PerkinElmer Catalog #CR130-100), for a final concentration of 15 mM, 1.5 nM and 75 nM, respectively. HTRF signals were read after 30 minutes incubation at room temperature on a PHERAstar FS plate reader (BMG LABTECH). Data was analyzed with IDBS XLfit and GraphPad Prism 5.0 software using a four parameter dose response curve to determine IC50 for each compound.

In test [4] the target is catalytic domain (JH1, amino acids 826-1132) of human JAK2 (Homo sapiens (Human), UniProt O60674). Nature of the test: JAK2 LanthaScreen JH1 Binding Assay. As to conditions: JAK2 JH1 1.5 nM, 50 nM tracer, 2 hours at 25° C.; read-out: JH1BIND IC50. Here is the method: Example A. JAK2 LanthaScreen JH1 Binding Assay
Chain of catalytic domain (JH1, amino acids 826-1132) of human JAK2 (O60674 826-1132): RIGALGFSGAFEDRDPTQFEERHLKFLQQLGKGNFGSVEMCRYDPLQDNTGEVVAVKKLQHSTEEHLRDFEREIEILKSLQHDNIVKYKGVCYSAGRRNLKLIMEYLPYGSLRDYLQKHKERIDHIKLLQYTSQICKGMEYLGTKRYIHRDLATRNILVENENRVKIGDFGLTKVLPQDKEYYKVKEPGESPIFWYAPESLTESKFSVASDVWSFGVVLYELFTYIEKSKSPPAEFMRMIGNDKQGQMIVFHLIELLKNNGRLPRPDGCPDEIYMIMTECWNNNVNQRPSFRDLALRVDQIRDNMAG
as §1, with “JAK2 JH1 binding assay utilizes catalytic domain (JH1, amino acids 826-1132) of human JAK2 expressed as N-terminal FLAG-tagged, biotinylated protein in a baculovirus expression system (Carna Biosciences, Product #08-445-20N). The” for “The”, “JH1 (1.5” for “JH2-WT (0.145”, “fluorescent JAK2-JH1 tracer” for “Fluorescent JAK2-JH2 Tracer (MedChem Express Catalog #HY-102055)”, “0.5” for “0.25”, “2 hours” for “1 hour”

Chain of pseudo-kinase domain (JH2) of human Wild Type JAK2 (O60674 536-812 W659A/W777A/F794H): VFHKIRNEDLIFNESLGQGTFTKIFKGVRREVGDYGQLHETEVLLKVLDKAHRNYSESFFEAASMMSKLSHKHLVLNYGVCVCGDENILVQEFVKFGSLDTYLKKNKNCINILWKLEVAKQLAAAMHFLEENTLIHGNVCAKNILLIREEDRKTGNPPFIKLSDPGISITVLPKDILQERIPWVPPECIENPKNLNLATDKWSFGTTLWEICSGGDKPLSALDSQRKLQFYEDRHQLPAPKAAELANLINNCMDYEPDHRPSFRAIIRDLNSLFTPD
Chain of pseudo-kinase domain (JH2) of human V617F mutant JAK2 (O60674 536-812 V617F/W659A/W777A/F794H): as the sequence (O60674 536-812 W659A/W777A/F794H) above, with V82F counted along it
Chain of catalytic domain (JH1, amino acids 808-1132) of human JAK2 (O60674 808-1132): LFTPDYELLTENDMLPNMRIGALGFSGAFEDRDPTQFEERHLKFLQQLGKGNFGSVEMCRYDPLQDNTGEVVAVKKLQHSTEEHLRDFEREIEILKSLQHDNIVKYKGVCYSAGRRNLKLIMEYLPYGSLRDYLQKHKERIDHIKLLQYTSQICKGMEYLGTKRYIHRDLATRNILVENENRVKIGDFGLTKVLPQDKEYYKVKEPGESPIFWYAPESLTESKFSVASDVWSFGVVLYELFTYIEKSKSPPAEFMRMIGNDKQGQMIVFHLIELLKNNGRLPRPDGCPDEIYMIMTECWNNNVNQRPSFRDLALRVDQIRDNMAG

Usually IC50 stands for the point on the concentration scale where inhibition reaches its midpoint. For `COc1c(Nc2cc(NC(=O)C3CC3)nc3cc[nH]c(=O)c23)cccc1-c1cn[nH]c1` [Example 1, N-(4-((2-Methoxy-3-(1H-pyrazol-4-yl)phenyl)amino)-5-oxo-5,6-dihydro-1,6-naphthyridin-2-yl)cyclopropanecarboxamide], the IC50 is 100 to 500 nM in test [1], no more than 100 nM in test [2], 1000 to 10000 nM in test [3] and 1000 to 10000 nM in test [4].
Take `COc1c(Nc2cc(NC(=O)C3CC3)nc3cc[nH]c(=O)c23)cccc1-c1cnc(C2CCOCC2)s1` [Example 2, N-(4-((2-Methoxy-3-(2-(tetrahydro-2H-pyran-4-yl)thiazol-5-yl)phenyl)amino)-5-oxo-5,6-dihydro-1,6-naphthyridin-2-yl)cyclopropanecarboxamide Trifluoroacetic Acid Salt]: the IC50 is no more than 100 nM in test [1], no more than 100 nM in test [2], greater than 10000 nM in test [3] and greater than 10000 nM in test [4].
With `COc1c(Nc2cc(NC(=O)C3CC3)nc3cc[nH]c(=O)c23)cccc1-c1cnn(C2CCCC2)c1` [Example 3, N-(4-((3-(1-Cyclopentyl-1H-pyrazol-4-yl)-2-methoxyphenyl)amino)-5-oxo-5,6-dihydro-1,6-naphthyridin-2-yl)cyclopropanecarboxamide Trifluoroacetic Acid Salt], the IC50 in test [1] is 100 to 500 nM; in test [2], 100 to 500 nM; in test [3], greater than 10000 nM; in test [4] it was greater than 10000 nM.
In the case of `COc1c(Nc2cc(NC(=O)C3CC3)nc3cc[nH]c(=O)c23)cccc1N1CCN(S(=O)(=O)C2CC2)CC1` [Example 4, N-(4-((3-(4-(Cyclopropylsulfonyl)piperazin-1-yl)-2-methoxyphenyl)amino)-5-oxo-5,6-dihydro-1,6-naphthyridin-2-yl)cyclopropanecarboxamide Trifluoroacetic Acid Salt], the IC50 in test [1] was 100 to 500 nM; in test [2] it was 100 to 500 nM; in test [3], greater than 10000 nM; in test [4], 1000 to 10000 nM.
In the case of `COc1c(Nc2cc(NC(=O)C3CC3)nc3cc[nH]c(=O)c23)cccc1-c1cnn(C2CCOCC2)c1` [Example 5, N-(4-((2-Methoxy-3-(1-(tetrahydro-2H-pyran-4-yl)-1H-pyrazol-4-yl)phenyl)amino)-5-oxo-5,6-dihydro-1,6-naphthyridin-2-yl)cyclopropanecarboxamide Trifluoroacetic Acid Salt], the IC50 in test [1] is no more than 100 nM; in test [2], no more than 100 nM; in test [3], greater than 10000 nM; in test [4], greater than 10000 nM.
Regarding `O=C(Nc1cc(Nc2cccc(-c3cnn(C4CCOCC4)c3)c2)c2c(=O)[nH]ccc2n1)C1CC1` [Example 6, N-(5-oxo-4-((3-(1-(tetrahydro-2H-pyran-4-yl)-1H-pyrazol-4-yl)phenyl)amino)-5,6-dihydro-1,6-naphthyridin-2-yl)cyclopropanecarboxamide Trifluoroacetic Acid Salt], the 50% inhibitory concentration (IC50) in test [1] was greater than 10000 nM; in test [2], greater than 10000 nM; in test [3], 1000 to 10000 nM; in test [4] it was 1000 to 10000 nM.
As for `COc1cc(-c2cnn(C3CCOCC3)c2)ccc1Nc1cc(NC(=O)C2CC2)nc2cc[nH]c(=O)c12` [Example 7, N-(4-((2-Methoxy-4-(1-(tetrahydro-2H-pyran-4-yl)-1H-pyrazol-4-yl)phenyl)amino)-5-oxo-5,6-dihydro-1,6-naphthyridin-2-yl)cyclopropanecarboxamide Trifluoroacetic Acid Salt], the half-inhibitory concentration (IC50) is greater than 10000 nM in test [1], 1000 to 10000 nM in test [2], 1000 to 10000 nM in test [3] and 1000 to 10000 nM in test [4].
Take `COc1c(Nc2cc(NC(=O)C3CC3)nc3cc[nH]c(=O)c23)cccc1-c1cnn(C(C)C(N)=O)c1` (stereo not shown) [Example 8, N-(4-((3-(1-(1-Amino-1-oxopropan-2-yl)-1H-pyrazol-4-yl)-2-methoxyphenyl)amino)-5-oxo-5,6-dihydro-1,6-naphthyridin-2-yl)cyclopropanecarboxamide Trifluoroacetic Acid Salt]: the IC50 in test [1] was no more than 100 nM; in test [2] it was no more than 100 nM; in test [3] it was 100 to 500 nM; in test [4], 1000 to 10000 nM.
Take `CCn1ccc2cccc(Nc3cc(NC(=O)C4CC4)nc4cc[nH]c(=O)c34)c21` [Example 9, N-(4-((1-Ethyl-1H-indol-7-yl)amino)-5-oxo-5,6-dihydro-1,6-naphthyridin-2-yl)cyclopropanecarboxamide Trifluoroacetic Acid Salt]: the IC50 in test [1] is 1000 to 10000 nM; in test [2] it was 1000 to 10000 nM; in test [3] it was greater than 10000 nM; in test [4] it was greater than 10000 nM.
Turning to `COc1c(Nc2cc(NC(=O)C3CC3)nc3ccn(C)c(=O)c23)cccc1-c1cnc(C2CCOCC2)s1` [Example 10, N-(4-((2-Methoxy-3-(2-(tetrahydro-2H-pyran-4-yl)thiazol-5-yl)phenyl)amino)-6-methyl-5-oxo-5,6-dihydro-1,6-naphthyridin-2-yl)cyclopropanecarboxamide Trifluoroacetic Acid Salt], the IC50 was 1000 to 10000 nM in test [1], 1000 to 10000 nM in test [2], greater than 10000 nM in test [3] and greater than 10000 nM in test [4].
As to `COc1c(Nc2cc(NC(=O)C3CC3)nc3cc[nH]c(=O)c23)cccc1C(=O)NCC1CCOCC1` [Example 11, 3-((2-(Cyclopropanecarboxamido)-5-oxo-5,6-dihydro-1,6-naphthyridin-4-yl)amino)-2-methoxy-N-((tetrahydro-2H-pyran-4-yl)methyl)benzamide Trifluoroacetic Acid Salt], the half-maximal inhibitory concentration (IC50) in test [1] is 1000 to 10000 nM; in test [2], 1000 to 10000 nM; in test [3] it was greater than 10000 nM; in test [4] it was greater than 10000 nM.
Turning to `CSc1c(Nc2cc(NC(=O)C3CC3)nc3cc[nH]c(=O)c23)cccc1-c1cnn(C2CCOCC2)c1` [Example 12, N-(4-((2-(Methylthio)-3-(1-(tetrahydro-2H-pyran-4-yl)-1H-pyrazol-4-yl)phenyl)amino)-5-oxo-5,6-dihydro-1,6-naphthyridin-2-yl)cyclopropanecarboxamide Trifluoroacetic Acid Salt], the IC50 in test [1] was 500 to 1000 nM; in test [2], 500 to 1000 nM; in test [3] it was greater than 10000 nM; in test [4] it was greater than 10000 nM.
On to `CS(=O)(=O)c1c(Nc2cc(NC(=O)C3CC3)nc3cc[nH]c(=O)c23)cccc1-c1cnn(C2CCOCC2)c1` [Example 13, N-(4-((2-(Methylsulfonyl)-3-(1-(tetrahydro-2H-pyran-4-yl)-1H-pyrazol-4-yl)phenyl)amino)-5-oxo-5,6-dihydro-1,6-naphthyridin-2-yl)cyclopropanecarboxamide Trifluoroacetic Acid Salt], for which the IC50 in test [1] is 1000 to 10000 nM; in test [2], 1000 to 10000 nM; in test [3], greater than 10000 nM; in test [4] it was greater than 10000 nM.
